Key:
[1] = system: 786-O-HIF2α-Luc cells; experiment: Luciferase assay (HIF2α reporter gene cells); type: cell-based; conditions: 18-20 h, luminescence
Method: The luciferase LUC gene was stably transfected into 786-0 cells (purchased from ATCC) using Lipofectamine 3000 transfection reagent (purchased from Invitrogen) to construct HIF2α reporter gene cells (786-O-HIF2α-Luc cells). The experiment was performed when 786-O-HIF2α-Luc cells were in the logarithmic growth phase, the culture medium (RPMI MEDIUM 1640, purchased from Invitrogen) was discarded, and the cells were rinsed three times with PBS; trypsin (TrypLE, purchased from Invitrogen) was added to digest the cells, and the digestion was terminated with culture medium, 10% fetal bovine serum, 1% penicillin, and streptomycin. The cells were collected by centrifugation, and washed twice with PBS to remove phenol red in the culture medium. The cells were resuspended to an appropriate concentration. The cell density and viability were measured, to ensure that the cells with a viability of at least 90% were used in the assay.
The compounds at a gradient concentration were transferred into 384 wells using Echo550 (non-contact acoustic pipetting system, purchased from Labcyte), 25 nL/well. The cells were seeded into 384-well plates, with 4500 cells/well and 25 μL of culture medium, and the final concentrations of the compounds were 10000 nM, 3333 nM, 1111 nM, 370 nM, 123 nM, 41.1 nM, 13.7 nM, 4.6 nM, 1.5 nM, and 0.5 nM, respectively. The cells were cultured for 18-20 h under conditions of 37° C. and 5% CO2. Steady-Glo™ luciferase assay system (purchased from Promega) was added to a 384-well plate, 25 μL/well. Luminescence values were detected using Envision. The inhibition rate % was calculated based on the RLU (Record Luminescence) signal value of each well, and then the IC50 values of the corresponding compounds were calculated by fitting using Graphpad 8.0.
The IC50 data of the exemplary examples are provided in Table 2, where A stands for IC50≤0.1 μM; B stands for 0.1 μM<IC50≤0.5 μM; and C stands for IC50>0.5 μM.

[2] = system: VEGFA; experiment: VEGFA ELISA assay (IC50); type: cell-based; conditions: Homo sapiens, 786-0; 786-O cells, 24 h, VEGFA in culture supernatant by ELISA
Method: 786-O cells in the logarithmic growth phase were inoculated into a 96-well plate at a cell concentration of 65,000 cells per ml of culture liquid, 180 μL per well. The compounds were diluted to the corresponding concentrations, and 20 μL of compound solutions of various concentrations were added to the corresponding cell wells, so that the final concentrations of the compounds were 1.5 nM, 4.6 nM, 13.7 nM, 41.2 nM, 123.5 nM, 370.4 nM, 1111.1 nM, 3333.3 nM, and 10000 nM, respectively. After culturing for 24 h, the cell culture supernatant was collected and the VEGFA concentration was determined using an ELISA kit (purchased from Abeam). Finally, the reaction was terminated and the absorbance value of each well was measured at a wavelength of 450 nm using an ELISA reader. The IC50 values were calculated by GraphPadPrism. CellTiter-Glo reagent was used to measure cell viability.

| SMILES | IC50 [1] [µM] | IC50 [2] [µM] | IC50 ([1]; class symbols) [µM] |
| --- | --- | --- | --- |
| O=S(=O)(c1cn(-c2ccc(F)c(C(F)F)c2)c2c1[C@H](O)CCC2)C(F)(F)F [Example 52, (R)-1-(3-(difluoromethyl)-4-fluorophenyl)-3-((trifluoromethyl)sulfonyl)-4,5,6,7-tetrahydro-1H-indol-4-ol] | 0.045 | 0.046 |  |
| CS(=O)(=NC#N)c1cn(-c2ccc(F)c(C(F)F)c2)c2c1[C@H](O)C(F)(F)CC2 (stereo partly drawn) [Example 59, N—(((S)-1-(3-(difluoromethyl)-4-fluorophenyl)-5,5-difluoro-4-hydroxyl-4,5,6,7-tetrahydro-1H-indol-3-yl)(methyl)(oxo)-16-sulfino)cyanamide] |  | 0.109 | 0.1 to 0.5 |
| N#Cc1ccc(-n2cc(C(F)(F)F)c3c2CCC(F)C3O)cc1C(F)F (stereo not drawn) [Example 107, 2-(difluoromethyl)-4-(5-fluoro-4-hydroxyl-3-(trifluoromethyl)-4,5,6,7-tetrahydro-1H-indol-1-yl)benzonitrile] |  | 0.034 | ≤ 0.1 |

— patent US20250042853A1, “BICYCLIC COMPOUND AND APPLICATION THEREOF” (BETTA PHARMACEUTICALS CO., LTD, priority 2021, published 2025)
